Data on one compound can be found in patent US20160263169A1, “COMPOSITION COMPRISING AN EXTRACT OF COMBINED HERB CONSISTING OF HEAT PROCESSED GINSENG, HOUTTUYNIAE HERBA, PERILLA LEAF AND TEA LEAF OR THE PROCESSED EXTRACT THEREOF AS AN ACTIVE INGREDIENT SHOWING HAIR-STIMULATING ACTIVITY AND PREVENTING ACTIVITY FROM HAIR LOSS, AND THE USE THEREOF” (GINSENG SCIENCE INC., priority 2015, published 2016).

This test concerns C57BL/6 mouse. Description: Promoting effect on hair growth (hair-regrown area/shaved area) in shaved C57BL/6 mouse. Type of test: in vivo. The settings on record: 2.5 mg spread on the back of mouse once a day.

Method: 6 weeks-old mouse (C57BL/6, 18-20 g, at the beginning of catagen, Orient Bio Inc. Seoul, Korea) was accustomed to the breeding environment for 1 week and anesthetized intramuscularly with an anesthetizer (2.5 mg/mouse, Ketamine, rompun, Bayer Korea Inc.). The back-hair of anesthetized mouse was removed by a grainer and the mice were divided into four groups consisting of 10 mice, respectively, i.e., (1) negative control group: treatment group with only solvent, (2) positive control group: treatment group with Minoxidil (0.5%, w/w), (3) comparative test group: treatment group with the extract prepared in Comparative Example 1 dissolved in adjuvant in a dose dependent manner, (4) test sample group: treatment group with the extract prepared in Examples dissolved in adjuvant in a dose dependent manner. 2.5 mg of the test samples was spread on the back of mouse once a day for 20 days.
The ratio of hair-regrown area/shaved area was quantitatively analyzed by image analyzer (Image-Pro, USA) after shooting the hair-grown area with digital camera (Canon, Japan) and the test result was scored to 5 scores, i.e., score 0: ineffective; score 1: merely effective; score 2: favorably effective; score 3; potently effective; score 4; most potently effective as shown in Table 2.

`Nc1cc(N2CCCCC2)nc(N)[n+]1[O-]` [Positive control, Minoxidil]: the Criteria entry reads like this: (5th day) “IE (Ineffective (IE))”; (10th day) “FE (favorably effective (FE))”; (15th day) “PE (potently effective (PE))”; (20th day) “PE (potently effective (PE))”. The Hair growth ratio came to 14% (5th day), 42% (10th day), 62% (15th day) and 68% (20th day). The Score is 0 (0-20%) (5th day), 2 (40-60%) (10th day), 3 (60-70%) (15th day) and 3 (60-70%) (20th day).
